# Source: patent US20210023024A1, “COMPOSITION FOR TREATMENT OF CHRONIC WOUNDS” (priority 2018, published 2021)
# Test system: diabetic foot ulcer
# Assay: Clinical use of triclosan cream on diabetic foot ulcers (patients 1 and 2)
# Assay type: in vivo, human
# Text: A triclosan cream formulation, according to an embodiment of the invention (Example 5), was applied to a number of patients, with differently presented conditions and symptoms. as described below:
# diabetic. Neuro ischaemic. Heart rate: pulse mono and biphasic depending on the weather. Indication of reduced arterial blood flow due to a blockage or low elasticity. Ex-smoker. Stage 3 Non healing dorsal diabetic foot ulcer.
# The patient had 2 ulcers: • 1) one on the dorsal IPJ on the 2nd toe, size of 5 pence, 1 cm sq and • 2) one on apex of 1st toe, size of 5p, 1 cm sq.
# The patient was treated twice a week. The ulcer was filled with the cream to the brim, so the cream was level with skin surface. […] Triclosan cream was applied for 8 weeks. The cream was packed into the wound and a non-adhesive foam dressing was applied. The patient then wore rocker bottom soles to reduce the weight and pressure. Treatment for this toe ulcer started on Mar. 11, 2017 and healed on 20/1/18. No other medication was used.
# The patient had 1 ulcer on sole of foot, approximately the size of 50 pence.
# While the patient was receiving chemotherapy, the triclosan cream was applied for 8 weeks. The triclosan cream was applied every alternate day, with a sharp debridement and cleansed with sterile saline solution prior to application of the cream. In the last two weeks of treatment the cream was applied daily. […]
smiles,measurement,setting,value
Cc1onc(-c2c(F)cccc2Cl)c1C(=O)N[C@@H]1C(=O)N2[C@@H]1SC(C)(C)[C@@H]2C(=O)O [Flucloxacilin],outcome of previous treatment,"Patient 1, before triclosan cream, Flucloxacilin 6 months intermittently, 6 courses",could not clear the infection in the wound
same,outcome of previous treatment,"Patient 2, before triclosan cream",could not clear the infection in the wound
